# According to patent US9249128B2 (priority 2010, dated 2016):
# Like-named read-outs stand apart in the source and are kept apart here.
# Key:
# PC3 and DU145 cells [1] = test: Invasion assay (Matrigel chambers); format: cell-based, human; settings: for PC3 and DU145 invasion: 10 μM, 4 h in situ
# Protocol: (§1) Inhibitors were dissolved in DMSO and diluted into media or buffer prior to cell or proteome treatment, respectively. For in vitro treatment, final DMSO concentration was 4%. For in situ treatments of cells for ABPP, lipid measurements, migration, cell-survival, and invasion assays, 2×10^6 cells were seeded in 6 cm dishes (˜100% confluency) 24 h prior to inhibitor pre-treatment (in DMSO at 0.1% final concentration) in serum-free media (3 mL) for the designated time before harvesting cells for ABPP or lipid measurements or before the initiation of migration, cell-survival, and invasion assays.
# (§2) Cell migration, cell survival, and invasion studies were performed as previously described (Nomura et al., 2010). Briefly, migration assays were performed in Transwell chambers (Corning) with 8 μm pore-sized membranes coated with 10 μg/mL collagen at 37° C. for LNCaP (24 h), PC3 (4 h) and DU145 cells (24 h), respectively. Cell survival assays were performed using the Cell Proliferation Reagent WST-1 (Roche) Invasion assays were conducted using the BD Matrigel Invasion Chambers per the manufacturer's protocol. Inhibitors were preincubated for the stated duration before seeding cells into migration, cell-survival, or invasion chambers. Prior to seeding the cells in these chambers, cells were serum-starved for 4 h. Inhibitors were also present during the migration, cell-survival, and invasion assays.
# [2] = tested on: MAGE levels in PC3 and DU145 cells; test: Lipid (MAGE) measurements in cancer cells; format: cell-based, human; settings: for MAGE levels: 10 μM, 4 h in situ
# Protocol: as §1
# Lipid measurements were performed in cancer cells as previously described (Chiang et al., 2006). Briefly, frozen cell pellets from cells harvested after 4 h serum starvation were extracted in 2:1:1 chloroform:methanol:Tris buffer pH 8.0 by dounce homogenization with 10 nmol of internal standard C12 MAGE. The organic layer was removed, dried under N2, and resuspended in 120 μL of chloroform, and 30 μL was injected into an Agilent 1100-MSD LC-MS. MAGE levels were quantified by measuring the area under the peak and were normalized to the C12 MAGE internal standard.
# PC3 and DU145 cells [3] = test: Serum-free cell survival assay (WST-1); format: cell-based, human; settings: for PC3 and DU145 serum-free cell survival: 10 μM, 4 h in situ
# Protocol: as §1, §2
# PC3 and DU145 cells [4] = test: Cell migration assay (Transwell); format: cell-based, human; settings: for PC3 and DU145 migration: 10 μM, 4 h in situ
# Protocol: as §1, §2
# PC3 tumor xenograft = PC3 tumor xenograft growth in SCID mice; format: in vivo, mouse; settings: 80 mg/kg, oral, daily, versus vehicle
# Protocol: Human cancer xenografts were established by transplanting cancer cell lines ectopically into the flank of C.B17 SCID mice (Taconic Farms). Briefly, cells were washed two times with PBS, trypsinized, and harvested in serum-containing medium. Next, the harvested cells were washed two times with serum-free medium and resuspended at a concentration of 2.0×10^4 cells/μL and 100 μL was injected. Growth of the tumors was measured every 3 days with calipers. For chronic JW480 treatment studies, mice were treated with JW480 or vehicle once daily (at approximately the same time everyday) by oral gavage in PEG300 (4 μL/g mouse). The treatments were initiated immediately after ectopic injection of cancer cells.
# KIAA1363 = target: T1, KIAA1363 (Homo sapiens, UniProt Q6PIU2); test: Gel-based competitive ABPP of living PC3 cells, in situ treatment; format: cell-based; parameters: PC3 cancer cells, which have high endogenous KIAA1363 levels; endogenous in cells; host or cells: PC3; settings: for IC50: in situ treatment
# T1 sequence (Q6PIU2 1-408): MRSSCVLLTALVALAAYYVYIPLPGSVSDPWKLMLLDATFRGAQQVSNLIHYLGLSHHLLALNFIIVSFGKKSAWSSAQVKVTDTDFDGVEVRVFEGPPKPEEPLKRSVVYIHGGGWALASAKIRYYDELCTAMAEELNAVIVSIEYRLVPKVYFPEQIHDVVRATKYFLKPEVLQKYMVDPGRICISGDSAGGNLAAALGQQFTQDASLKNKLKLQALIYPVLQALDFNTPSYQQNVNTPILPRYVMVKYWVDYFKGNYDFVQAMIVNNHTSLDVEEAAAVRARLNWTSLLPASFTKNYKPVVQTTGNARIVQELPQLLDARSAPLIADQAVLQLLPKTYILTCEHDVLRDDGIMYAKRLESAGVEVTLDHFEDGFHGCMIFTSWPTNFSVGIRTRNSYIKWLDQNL
# Protocol: as §1
# For ABPP experiments, cell lysate and tissue proteomes were treated with 1 μM FP-rhodamine for 30 min at room temperature (50 μL total reaction volume) as described previously (Nomura et al., 2010). Reactions were quenched with one volume of standard 4×SDS/PAGE loading buffer (reducing), separated by SDS/PAGE (10% acrylamide), and visualized in-gel with a Hitachi FMBio IIe flatbed fluorescence scanner (MiraiBio). Inhibitors were preincubated prior (30 min or 4 h at 37° C. in vitro or in situ, respectively) to the addition of FP-rhodamine.
# JW576 was dissolved in DMSO and diluted into media or buffer prior to cell or proteome treatment, respectively. For in vitro treatment, final DMSO concentration was 4%. For in situ treatments of cells for ABPP, 2×10^6 cells were seeded in 6 cm dishes (100% confluency) 24 hr prior to JW576 pretreatment with or without JW480 (in DMSO at 0.1% final concentration) in serum-free media (3 ml) for the designated time before harvesting cells for ABPP.
# For ABPP experiments, cell lysate and tissue proteomes were treated with 1 μM FP-rhodamine for 30 min at room temperature ([…]). Reactions were quenched with one volume of standard 4×SDS/PAGE loading buffer (reducing), separated by SDS/PAGE (10% acrylamide), and visualized in-gel with a Hitachi FMBio IIe flatbed fluorescence scanner (MiraiBio). For experiments involving a preincubation with JW576 in the presence or absence of the non-fluorescent competitor JW480, the reactions were prepared without FP-rhodamine. JW576 were added at the indicated concentration and incubated for the indicated time at 37° C. FP-rhodamine was then added and the reaction was carried out exactly as described above.
SMILES,PC3 and DU145 invasion (PC3 and DU145 cells [1]),MAGE levels [2],PC3 and DU145 serum-free cell survival (PC3 and DU145 cells [3]),PC3 and DU145 migration (PC3 and DU145 cells [4]),PC3 tumor growth (PC3 tumor xenograft),"Invasion of PC3 cells (PC3 and DU145 cells [1]; 1 μM, 48 h in situ)","Duration of in situ inhibition of KIAA1363 (KIAA1363; JW480 1 μM, PC3 cells)","IC50 (KIAA1363; PC3 cells, read-out: IC50 for KIAA1363, in situ (FIG. 3B)) [nM]","IC50 (KIAA1363; presence or absence of 10% fetal calf serum, read-out: IC50 for KIAA1363 in living PC3 cells) [nM]","MAGE lipids ([2]; 1 μM, 48 hr)","Serum-free cell survival of PC3 cells (PC3 and DU145 cells [3]; 1 μM, 48 h in situ)","Migration of PC3 cells (PC3 and DU145 cells [4]; 1 μM, 48 h in situ)"
"COc1ccc(CNC(=O)Oc2cccc3c2OC(C)(C)C3)cc1 [JW148, 2,2-dimethyl-2,3-dihydrobenzofuran-7-yl 4-methoxybenzylcarbamate]",impair,lower MAGE levels,impair,impair,,,,,,,,
"CC(C)c1ccccc1OC(=O)NCCc1ccc2ccccc2c1 [JW480, 2-isopropylphenyl (2-(naphthalen-2-yl)ethyl)carbamate]",impair,lower MAGE levels,impair,impair,significantly impaired,reduced,at least 48 hr,6,6 to 12,significant reductions,reduced,reduced
